According to the supplement of paper PMC10307832:

Legend:
Assay in all cases: relative viability (nuclei count vs DMSO), 5 days (fraction); higher = more cells survive
[1] = compound: O=S(=O)(c1ccccc1)N(CC(F)(F)F)c1ccc(C(O)(C(F)(F)F)C(F)(F)F)cc1 + C[C@]1(O)C[C@@H](c2nc(-c3ccc4ccc(-c5ccccc5)nc4c3)c3c(N)nccn32)C1 [Linsitinib] (partner 1 µM)
How it was run: (§1)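 Lung cancer cell lines were seeded in 1536-well plates and dosed by pin tool the next day, with either a single drug or a fixed anchor-drug dose combined with five library-drug doses (not always all listed) spaced in √10 steps. Five days later, one step fixed the cells and stained their nuclei (final 0.05% Triton X-100, 1% formaldehyde, 1 ug/ml Hoechst), and nuclei were counted on 4× images. Relative viability is the nuclei count in treated wells divided by the count in vehicle wells, and each value is the median of duplicate plates.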

[2] = compound: O=S(=O)(c1ccccc1)N(CC(F)(F)F)c1ccc(C(O)(C(F)(F)F)C(F)(F)F)cc1 + O=C(c1cc(Cc2n[nH]c(=O)c3ccccc23)ccc1F)N1CCN(C(=O)C2CC2)CC1 [Olaparib] (partner 8 µM)
How it was run: as §1

[3] = compound: O=S(=O)(c1ccccc1)N(CC(F)(F)F)c1ccc(C(O)(C(F)(F)F)C(F)(F)F)cc1 + Nc1nc2[nH]cc(CCc3ccc(C(=O)N[C@@H](CCC(=O)O)C(=O)O)cc3)c2c(=O)[nH]1 [Pemetrexed] (partner 0.2 µM)
How it was run: as §1

RO-3306 + Tozasertib = compound: C1=CC2=C(C=CC(=C2)C=C3C(=O)NC(=NCC4=CC=CS4)S3)N=C1 [RO-3306] + Cc1cc(Nc2cc(N3CCN(C)CC3)nc(Sc3ccc(NC(=O)C4CC4)cc3)n2)n[nH]1 [Tozasertib] (partner 0.1 µM)
How it was run: as §1

[4] = compound: O=S(=O)(c1ccccc1)N(CC(F)(F)F)c1ccc(C(O)(C(F)(F)F)C(F)(F)F)cc1 + CCNC(=O)c1noc(-c2cc(C(C)C)c(O)cc2O)c1-c1ccc(CN2CCOCC2)cc1 [Luminespib] (partner 0.01 µM)
How it was run: as §1

## HCC-827
[1]; first compound 0.8 µM
  relative viability: 1.03
[1]; first compound 2.53 µM
  relative viability: 0.954
[1]; first compound 8 µM
  relative viability: 0.938
[2]; first compound 0.8 µM
  relative viability: 0.612
[2]; first compound 2.53 µM
  relative viability: 0.627
[2]; first compound 8 µM
  relative viability: 0.63
[3]; first compound 0.8 µM
  relative viability: 0.266
[3]; first compound 2.53 µM
  relative viability: 0.246
[3]; first compound 8 µM
  relative viability: 0.239
RO-3306 + Tozasertib; first compound 0.01 µM
  relative viability: 0.452
RO-3306 + Tozasertib; first compound 0.03162 µM
  relative viability: 0.417
RO-3306 + Tozasertib; first compound 0.1 µM
  relative viability: 0.376
RO-3306 + Tozasertib; first compound 0.3162 µM
  relative viability: 0.4
RO-3306 + Tozasertib; first compound 1 µM
  relative viability: 0.419
[4]; first compound 0.8 µM
  relative viability: 0.439
[4]; first compound 2.53 µM
  relative viability: 0.589
[4]; first compound 8 µM
  relative viability: 0.573

## NCI-H2347
[1]; first compound 0.8 µM
  relative viability: 1.1
[1]; first compound 2.53 µM
  relative viability: 1.01
[1]; first compound 8 µM
  relative viability: 0.825
[2]; first compound 0.8 µM
  relative viability: 0.566
[2]; first compound 2.53 µM
  relative viability: 0.522
[2]; first compound 8 µM
  relative viability: 0.572
[3]; first compound 0.8 µM
  relative viability: 0.47
[3]; first compound 2.53 µM
  relative viability: 0.445
[3]; first compound 8 µM
  relative viability: 0.395
RO-3306 + Tozasertib; first compound 0.01 µM
  relative viability: 0.616
RO-3306 + Tozasertib; first compound 0.03162 µM
  relative viability: 0.616
RO-3306 + Tozasertib; first compound 0.1 µM
  relative viability: 0.628
RO-3306 + Tozasertib; first compound 0.3162 µM
  relative viability: 0.525
RO-3306 + Tozasertib; first compound 1 µM
  relative viability: 0.514
[4]; first compound 0.8 µM
  relative viability: 0.512
[4]; first compound 2.53 µM
  relative viability: 0.41
[4]; first compound 8 µM
  relative viability: 0.286

## HCC-44
[1]; first compound 0.8 µM
  relative viability: 0.717
[1]; first compound 2.53 µM
  relative viability: 0.705
[1]; first compound 8 µM
  relative viability: 0.658
[2]; first compound 0.8 µM
  relative viability: 0.932
[2]; first compound 2.53 µM
  relative viability: 0.969
[2]; first compound 8 µM
  relative viability: 0.999
[3]; first compound 0.8 µM
  relative viability: 0.635
[3]; first compound 2.53 µM
  relative viability: 0.627
[3]; first compound 8 µM
  relative viability: 0.702
RO-3306 + Tozasertib; first compound 0.01 µM
  relative viability: 1.17
RO-3306 + Tozasertib; first compound 0.03162 µM
  relative viability: 0.947
RO-3306 + Tozasertib; first compound 0.1 µM
  relative viability: 0.925
RO-3306 + Tozasertib; first compound 0.3162 µM
  relative viability: 0.873
RO-3306 + Tozasertib; first compound 1 µM
  relative viability: 0.676
[4]; first compound 2.53 µM
  relative viability: 1.13
[4]; first compound 8 µM
  relative viability: 1.08

## PC-3 [JPC-3]
[1]; first compound 0.8 µM
  relative viability: 0.984
[1]; first compound 2.53 µM
  relative viability: 0.887
[1]; first compound 8 µM
  relative viability: 0.899
[2]; first compound 2.53 µM
  relative viability: 1.09
[2]; first compound 8 µM
  relative viability: 1.1
[3]; first compound 2.53 µM
  relative viability: 1.07
[3]; first compound 8 µM
  relative viability: 0.949
RO-3306 + Tozasertib; first compound 0.01 µM
  relative viability: 0.872
RO-3306 + Tozasertib; first compound 0.03162 µM
  relative viability: 0.825
RO-3306 + Tozasertib; first compound 0.1 µM
  relative viability: 0.892
RO-3306 + Tozasertib; first compound 0.3162 µM
  relative viability: 0.852
RO-3306 + Tozasertib; first compound 1 µM
  relative viability: 0.416
[4]; first compound 0.8 µM
  relative viability: 0.654
[4]; first compound 2.53 µM
  relative viability: 0.717
[4]; first compound 8 µM
  relative viability: 0.679

## NCI-H1651
[1]; first compound 0.8 µM
  relative viability: 1.04
[1]; first compound 2.53 µM
  relative viability: 0.901
[1]; first compound 8 µM
  relative viability: 1.02
[2]; first compound 0.8 µM
  relative viability: 0.178
[2]; first compound 2.53 µM
  relative viability: 0.206
[2]; first compound 8 µM
  relative viability: 0.176
[3]; first compound 0.8 µM
  relative viability: 0.726
[3]; first compound 2.53 µM
  relative viability: 0.61
[3]; first compound 8 µM
  relative viability: 0.521
RO-3306 + Tozasertib; first compound 0.01 µM
  relative viability: 0.713
RO-3306 + Tozasertib; first compound 0.03162 µM
  relative viability: 0.589
RO-3306 + Tozasertib; first compound 0.1 µM
  relative viability: 0.755
RO-3306 + Tozasertib; first compound 0.3162 µM
  relative viability: 0.57
RO-3306 + Tozasertib; first compound 1 µM
  relative viability: 0.446
[4]; first compound 0.8 µM
  relative viability: 0.995
[4]; first compound 2.53 µM
  relative viability: 0.871
[4]; first compound 8 µM
  relative viability: 0.732
